Counter-ions that a name gives are not always drawn. Like-named read-outs stand apart in the source and are kept apart here.
Legend:
[1] = test system: HB4a ras cells; assay: Cell proliferation assay, HB4a transfected with ras (general toxicity comparison); format: cell-based, human; conditions: read-out: Cell Proliferation HB4a ras IC50
Protocol: (§1) The cell proliferation assay uses an immortalised human breast epithelial cell line (HB4a) which has been transformed by over-expression of c-erbB-2. Growth of these cells in low serum is dependent upon the c-erbB-2 tyrosine kinase activity. The specificity of the effect of the test compounds on tyrosine kinase dependent growth over general toxicity is assessed by comparison to an HB4a cell line which has been transfected with ras. Cells are plated at 3000/well in 96-well plates in 0.1 ml medium and allowed to attach overnight, test compound is added in 0.1 ml medium, with a final concentration of 0.5% DMSO, and the plates incubated for 4 days at 37° C. The cells are then examined microscopically for evidence of morphological detransformation and cell mass is estimated by staining with methylene blue and measuring the absorbance at 620 nm. The results are shown in Table 1 below as the IC50 values in nM. Activity against a range of naturally occurring EGFr or c-erbB-2 over-expressing human tumour cell lines (BT474-breast, HN5-head and neck, N87-gastric and Calu3-lung) is assessed with selected compounds by the same methodology. The results are also shown in Table 1 below as the IC50 values in nM.

[2] = molecular target: T1, c-erbB-4 (baculovirus expressed recombinant intracellular domain) (Homo sapiens, UniProt Q15303); assay: Substrate phosphorylation assay, c-erbB-4; format: biochemical; conditions: ATP and peptide at Km, 30 min, room temperature
T1 construct: baculovirus expressed, recombinant constructs of the intracellular domains of c-erbB-2 and c-erbB-4 that are constitutively active; made in house
Protocol: (§2) The substrate phosphorylation assays use baculovirus expressed, recombinant constructs of the intracellular domains of c-erbB-2 and c-erbB-4 that are constitutively active and EGFr isolated from solubilised A431 cell membranes. The method measures the ability of the isolated enzymes to catalyse the transfer of the γ-phosphate from ATP onto tyrosine residues in a biotinylated synthetic peptide (Biotin-[…]. […] The reaction is stopped by the addition of EDTA (final concentration 0.15 mM) and a sample is transferred to a streptavidin-coated 96-well plate. The plate is washed and level of phosphotyrosine on the peptide is determined using a Europium-labelled antiphosphotyrosine antibody and quantified with a time-resolved fluorescence technique.

[3] = test system: N87 cells; assay: Cell proliferation assay, N87 gastric tumour cell line; format: cell-based, human; conditions: read-out: Cell Proliferation N87 IC50
Protocol: as §1

[4] = test system: HB4a erbB-2 cells; assay: Cell proliferation assay, HB4a transformed by over-expression of c-erbB-2; format: cell-based, human; conditions: read-out: Cell Proliferation HB4a erbB-2 IC50
Protocol: as §1

[5] = test system: Calu3 cells; assay: Cell proliferation assay, Calu3 lung tumour cell line; format: cell-based, human; conditions: Homo sapiens, Calu-3, 96 h, read-out: Cell Proliferation Calu3 IC50
Protocol: as §1

[6] = molecular target: T2, c-erbB-2 (baculovirus expressed recombinant intracellular domain) (Homo sapiens, UniProt P04626); assay: Substrate phosphorylation assay, c-erbB-2; format: biochemical; conditions: ATP and peptide at Km, 30 min, room temperature
T2 construct: baculovirus expressed, recombinant constructs of the intracellular domains of c-erbB-2 and c-erbB-4 that are constitutively active; made in house
Protocol: as §2

[7] = test system: HN5 cells; assay: Cell proliferation assay, HN5 head and neck tumour cell line; format: cell-based; conditions: Homo sapiens, HN5, 96 h, read-out: Cell Proliferation HN5 IC50
Protocol: as §1

[8] = test system: BT474 cells; assay: Cell proliferation assay, BT474 breast tumour cell line; format: cell-based, human; conditions: read-out: Cell Proliferation BT474 IC50
Protocol: as §1

[9] = molecular target: T3, EGFr isolated from solubilised A431 cell membranes (Homo sapiens, UniProt P00533); assay: Substrate phosphorylation assay, EGFr; format: biochemical; conditions: ATP and peptide at Km, 30 min, room temperature
T3 construct: EGFr isolated from solubilised A431 cell membranes; endogenous in cells; host or cells: A431 cell membranes (solubilised)
Protocol: as §2

[10] = Homo sapiens, HB4a, 96 h, 4 days, methylene blue staining
[11] = 4 days, methylene blue staining
[12] = Homo sapiens, BT-474, 96 h, 4 days, methylene blue staining
[13] = Homo sapiens, 96 h, 4 days, methylene blue staining

T2 sequence (P04626 676-1255 limits assumed): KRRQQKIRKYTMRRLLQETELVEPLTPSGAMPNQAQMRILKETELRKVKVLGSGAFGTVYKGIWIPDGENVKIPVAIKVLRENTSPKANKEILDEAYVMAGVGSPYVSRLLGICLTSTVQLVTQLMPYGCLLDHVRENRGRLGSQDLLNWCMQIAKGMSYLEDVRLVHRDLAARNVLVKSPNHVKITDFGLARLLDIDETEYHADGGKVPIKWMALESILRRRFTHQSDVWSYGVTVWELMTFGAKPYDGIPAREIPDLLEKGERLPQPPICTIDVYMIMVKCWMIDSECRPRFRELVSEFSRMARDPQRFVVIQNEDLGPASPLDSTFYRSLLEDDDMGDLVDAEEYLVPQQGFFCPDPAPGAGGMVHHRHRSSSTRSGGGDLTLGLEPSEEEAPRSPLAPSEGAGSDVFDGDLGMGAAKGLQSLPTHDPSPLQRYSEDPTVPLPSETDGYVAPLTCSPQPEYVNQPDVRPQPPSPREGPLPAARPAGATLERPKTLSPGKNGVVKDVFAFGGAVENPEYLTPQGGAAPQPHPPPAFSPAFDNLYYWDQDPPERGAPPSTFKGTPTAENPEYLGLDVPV
T1 sequence (Q15303 676-1308 limits assumed): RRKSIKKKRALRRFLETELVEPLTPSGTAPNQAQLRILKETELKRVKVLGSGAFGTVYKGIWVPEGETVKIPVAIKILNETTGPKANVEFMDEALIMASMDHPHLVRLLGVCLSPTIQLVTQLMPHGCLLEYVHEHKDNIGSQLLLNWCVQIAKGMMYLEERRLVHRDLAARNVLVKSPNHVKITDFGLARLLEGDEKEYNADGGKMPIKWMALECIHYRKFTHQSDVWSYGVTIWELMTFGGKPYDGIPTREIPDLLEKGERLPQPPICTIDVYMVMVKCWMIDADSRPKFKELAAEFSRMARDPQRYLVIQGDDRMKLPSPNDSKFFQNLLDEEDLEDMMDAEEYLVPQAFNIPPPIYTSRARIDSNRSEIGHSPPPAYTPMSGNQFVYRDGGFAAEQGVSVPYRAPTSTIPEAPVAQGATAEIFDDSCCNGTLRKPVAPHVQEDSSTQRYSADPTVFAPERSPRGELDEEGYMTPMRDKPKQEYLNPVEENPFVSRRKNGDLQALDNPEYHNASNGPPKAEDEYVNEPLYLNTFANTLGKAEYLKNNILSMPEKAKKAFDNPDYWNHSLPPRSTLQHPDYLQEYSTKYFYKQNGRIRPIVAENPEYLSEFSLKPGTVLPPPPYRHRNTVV
T3 sequence (P00533 25-1210): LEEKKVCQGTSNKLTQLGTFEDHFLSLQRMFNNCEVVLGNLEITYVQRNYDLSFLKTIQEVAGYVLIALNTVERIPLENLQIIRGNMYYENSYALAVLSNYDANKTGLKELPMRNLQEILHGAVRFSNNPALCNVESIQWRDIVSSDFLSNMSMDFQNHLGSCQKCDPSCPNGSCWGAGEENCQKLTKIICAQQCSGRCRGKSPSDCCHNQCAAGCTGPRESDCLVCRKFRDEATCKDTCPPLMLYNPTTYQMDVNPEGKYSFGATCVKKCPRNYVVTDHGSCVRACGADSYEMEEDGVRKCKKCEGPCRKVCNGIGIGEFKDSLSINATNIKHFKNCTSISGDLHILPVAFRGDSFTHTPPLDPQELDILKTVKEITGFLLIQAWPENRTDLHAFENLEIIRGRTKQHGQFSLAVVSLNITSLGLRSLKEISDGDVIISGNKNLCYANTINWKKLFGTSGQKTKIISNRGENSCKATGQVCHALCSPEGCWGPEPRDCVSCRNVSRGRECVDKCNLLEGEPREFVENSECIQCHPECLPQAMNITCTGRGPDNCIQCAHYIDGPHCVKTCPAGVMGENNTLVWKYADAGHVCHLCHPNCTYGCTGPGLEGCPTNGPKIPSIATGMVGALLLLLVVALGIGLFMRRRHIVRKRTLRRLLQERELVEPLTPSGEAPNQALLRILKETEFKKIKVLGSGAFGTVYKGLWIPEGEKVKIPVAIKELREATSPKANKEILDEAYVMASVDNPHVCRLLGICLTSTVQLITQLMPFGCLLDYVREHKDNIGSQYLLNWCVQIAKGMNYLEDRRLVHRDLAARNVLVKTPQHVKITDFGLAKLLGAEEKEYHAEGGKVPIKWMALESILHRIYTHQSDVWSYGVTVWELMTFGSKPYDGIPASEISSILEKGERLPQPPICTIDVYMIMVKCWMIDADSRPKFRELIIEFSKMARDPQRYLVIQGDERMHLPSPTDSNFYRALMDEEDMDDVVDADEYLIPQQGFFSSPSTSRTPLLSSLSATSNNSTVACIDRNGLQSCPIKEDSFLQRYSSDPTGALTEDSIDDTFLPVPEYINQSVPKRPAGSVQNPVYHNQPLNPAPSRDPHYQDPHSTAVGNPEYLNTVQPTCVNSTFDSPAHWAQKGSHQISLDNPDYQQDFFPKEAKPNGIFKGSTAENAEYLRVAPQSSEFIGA

CN(C)c1cc2c(Nc3ccc4c(cnn4Cc4ccccc4)c3)ncnc2cn1 [Example 2, N 4-(1-Benzyl-1H-indazol-5-yl)-N6,N6-dimethyl-pyrido[3,4-d]pyrimidine-4.6-diamine]
IC50 ([1]; Homo sapiens, HB4a, 96 h): 17 µM | IC50 [2]: 0.02 µM | IC50 ([3]; Homo sapiens, 96 h): 0.24 µM | IC50 ([4]; Homo sapiens, HB4a, 96 h): 0.11 µM | IC50 [5]: 0.38 µM | IC50 [6]: 0.019 µM | IC50 [7]: 0.3 µM | IC50 ([8]; Homo sapiens, BT-474, 96 h): 0.14 µM

CN(C)c1cc2c(Nc3ccc4nc(Cc5ccccc5)[nH]c4c3)ncnc2cn1 [Example 7, N4-(2-Benzyl-1H-benzimidazol-5-yl)-N6,N6-dimethyl-pyrido[3,4-d]pyrimidine-4,6-diamine]
IC50 [1, 10]: 19 µM | IC50 [2]: 0.021 µM | IC50 [4, 10]: 1.9 µM | IC50 [5, 11]: 8 µM | IC50 [6]: 0.007 µM | IC50 [8, 12]: 0.61 µM

NC(=O)[C@@H]1CCCN1Cc1ccc(-c2cc3c(Nc4ccc5c(cnn5Cc5ccccc5)c4)ncnc3cn2)o1 [Example 10, (2S)1-(5-(4-(1-Benzyl-1H-indazol-5-ylamino)-6-pydrido[3,4-d]pyrimidin-6-yl)-furan-2-ylmethyl)-pyrrolidine-2-carboxylic Acid Amide Hydrochloride]
IC50 [1, 10]: 21 µM | IC50 [2]: 0.01 µM | IC50 [3, 13]: 0.002 µM | IC50 [4, 10]: 0.071 µM | IC50 [5, 11]: 0.16 µM | IC50 [6]: 0.006 µM | IC50 [7, 11]: 0.13 µM | IC50 [8, 12]: 0.002 µM

Cn1cncc1-c1cc2c(Nc3ccc4c(cnn4Cc4ccccc4)c3)ncnc2cn1 [Example 11, (1-Benzyl-1H-indazol-5-yl)-(6-(3-methyl-3H-imidazol-4-yl)-pyrido[3,4-d]pyrimidin-4-yl)-amine]
IC50 [1, 10]: 3.8 µM | IC50 [2]: 0.055 µM | IC50 [3, 13]: 0.37 µM | IC50 [4, 10]: 1.4 µM | IC50 [5, 11]: 1.2 µM | IC50 [9]: 0.015 µM | IC50 [6]: 0.009 µM | IC50 [7, 11]: 1.4 µM | IC50 [8, 12]: 1.4 µM

CN(C)c1cc2c(Nc3ccc4c(cnn4Cc4cccc(F)c4)c3)ncnc2cn1 [Example 16, N4-(1-(3-Fluoro-benzyl)-1H-indazol-5-yl)-N6,N6-dimethyl-pyrido[3,4-d]pyrimidine-4.6-diamine Hydrochloride]
IC50 [1, 10]: 11 µM | IC50 [2]: 0.096 µM | IC50 [3, 13]: 0.12 µM | IC50 [4, 10]: 0.044 µM | IC50 [5, 11]: 0.18 µM | IC50 [6]: 0.009 µM | IC50 [7, 11]: 0.081 µM | IC50 [8, 12]: 0.001 µM

c1ccc(Cn2ncc3cc(Nc4ncnc5cnc(N6CCCCC6)cc45)ccc32)cc1 [Example 25]
IC50 [1, 11]: > 50 µM | IC50 [2]: 0.57 µM | IC50 [3, 11]: 0.94 µM | IC50 [4, 11]: 0.48 µM | IC50 [9]: 0.38 µM | IC50 [6]: 0.06 µM | IC50 [8, 11]: 0.27 µM

Cc1nnc(-c2cc3c(Nc4ccc5c(cnn5Cc5ccccc5)c4)ncnc3cn2)o1 [Example 29, (1-Benzyl-1H-indazol-5-yl)-(6-(5-methyl-1,3,4-oxadiazol-2-yl)-pyrido[3,4-d]pyrimidin-4-yl)-amine Hydrochloride]
IC50 [1, 10]: 29 µM | IC50 [2]: 5.5 µM | IC50 [3, 13]: 10 µM | IC50 [4, 10]: 5.2 µM | IC50 [9]: 0.002 µM | IC50 [6]: 0.002 µM | IC50 [8, 12]: 11 µM

CN1CCN(c2cc3c(Nc4ccc5c(cnn5Cc5ccccc5)c4)ncnc3cn2)CC1 [Example 32, (1-Benzyl-1H-indazol-5-yl)-(6-(4-methyl-piperazin-1-yl)-pyrido[3,4-d]pyrimidin-4-yl)-amine]
IC50 [1, 10]: 8.8 µM | IC50 [2]: 0.14 µM | IC50 [3, 13]: 0.6 µM | IC50 [4, 10]: 0.1 µM | IC50 [5, 11]: 8.2 µM | IC50 [6]: 0.055 µM | IC50 [7, 11]: 4.2 µM | IC50 [8, 12]: 1 µM

CS(=O)(=O)CCNCc1ccc(-c2cc3c(Nc4ccc5c(cnn5Cc5ccccc5)c4)ncnc3cn2)o1 [Example 34, (1-Benzyl-1H-indazol-5-yl)-(6-(5-((2-methanesuphonyl-ethylamino)-methyl)-furan-2-yl)-pyrido-[3,4-d]pyrimidin-4-yl)-amine Hydrochloride]
IC50 [1, 10]: 17 µM | IC50 [2]: 0.23 µM | IC50 [3, 13]: 0.19 µM | IC50 [4, 10]: 0.07 µM | IC50 [5, 11]: 1.3 µM | IC50 [6]: 0.015 µM | IC50 [7, 11]: 0.19 µM | IC50 [8, 12]: 0.002 µM

CNc1cc2c(Nc3ccc4c(cnn4Cc4ccccc4)c3)ncnc2cn1 [Example 37, N4-(1-Benzyl-1H-indazol-5-yl)-N6-methyl-pyrido[3,4-d]pyrimidine-4,6diamine]
IC50 [1, 10]: 17 µM | IC50 [2]: 0.18 µM | IC50 [3, 13]: 2.2 µM | IC50 [4, 10]: 0.52 µM | IC50 [5, 11]: 3.7 µM | IC50 [9]: 0.03 µM | IC50 [6]: 0.065 µM | IC50 [7, 11]: 2 µM | IC50 [8, 12]: 1.1 µM
